Molecular target: Glutamate NMDA receptor; Grin1/Grin2c (Rattus norvegicus) (UniProt P35439+Q00961)
Test: Modulation of recombinant rat GluN1/GluN2C expressed in Xenopus laevis oocytes assessed as potentiation of glycine/glutamate-induced current by measuring receptor response at 100 uM by two-electrode voltage-clamp method relative to control
Format: cell-based

## COC(=O)c1ccc(C2C(C(=O)c3ccncc3)=C(O)C(=O)N2CCc2c[nH]cn2)cc1 (configuration not stated)
  Activity: 84%

## COC(=O)c1ccc(C2C(C(=O)c3ccncc3)=C(O)C(=O)N2CCc2ccncc2)cc1 (configuration not stated)
  Activity: 97%
